This passage reports GI50 and Activity results from ChEMBL document CHEMBL1909564, “A modular approach to trim cellular targets in anticancer drug discovery” (Bioorg Med Chem Lett, 2011).

Calls of active or inactive are those of the source. The rule behind the calls is not given here. Bounds are passed on as bounds.

For experiment [1], the system named is HeLa. The experiment in a line: Growth inhibition of human HeLa cells. Type of experiment: functional.
Experiment [2] concerns T47D. The experiment in a line: Growth inhibition of human T47D cells. Type of experiment: functional.
For the next experiment, the system named is A2780. The experiment in a line: Growth inhibition of human A2780 cells. Type of experiment: functional.
Experiment [3] deals with SW1573. The experiment in a line: Growth inhibition of human SW1573 cells. Type of experiment: functional.
The next experiment concerns Ishikawa. The experiment in a line: Growth inhibition of human Ishikawa cells. Type of experiment: functional.
For experiment [4], the system named is HBL-100. The experiment in a line: Growth inhibition of human HBL100 cells. It counts as functional.
For experiment [5], the system named is WiDr. The experiment in a line: Growth inhibition of human WiDr cells. It counts as functional.
Experiment [6] deals with HeLa. The experiment in a line: Cell cycle arrest in human HeLa cells assessed as decrease in cells at G1 phase at 7 to 21 uM after 24 hrs by flow cytometry. Type of experiment: functional, cell-based. In general terms: Flow cytometry measures light scatter and fluorescence of single cells or particles in a stream.
Experiment [7] relates to HeLa. The experiment in a line: Cell cycle arrest in human HeLa cells assessed as increase in level of phosphorylated histone H3 at ser10 at 7 to 21 uM after 24 hrs by Western blot analysis. It counts as functional, cell-based.
In experiment [8] the test system is SW1573. The experiment in a line: Cell cycle arrest in human SW1573 cells assessed as decrease in cells at S phase at 7 to 21 uM after 24 hrs by flow cytometry. It counts as functional, cell-based.
The subject of experiment [9] is WiDr. The experiment in a line: Cell cycle arrest in human WiDr cells assessed as accumulation at G2/M phase after 24 hrs by flow cytometry. Type of experiment: functional, cell-based.
Experiment [10] concerns HeLa. The experiment in a line: Cell cycle arrest in human HeLa cells assessed as accumulation at G2/M phase after 24 hrs by flow cytometry. It counts as functional, cell-based.
The subject of experiment [11] is WiDr. The experiment in a line: Induction of apoptosis in human WiDr cells assessed as increase in sub-G1 DNA content at 7 to 21 uM after 24 hrs by flow cytometry. Type of experiment: functional.
Experiment [12] has as its system T47D. The experiment in a line: Cell cycle arrest in human T47D cells assessed as decrease in cells at G1 phase at 7 to 21 uM after 24 hrs by flow cytometry. Type of experiment: functional, cell-based.
For experiment [13], the system named is T47D. The experiment in a line: Cell cycle arrest in human T47D cells assessed as accumulation at G2/M phase after 24 hrs by flow cytometry. It counts as functional, cell-based.
Experiment [14] deals with HeLa. The experiment in a line: Cell cycle arrest in human HeLa cells assessed as effect on cyclin B1 protein at 7 to 21 uM after 24 hrs by Western blot analysis. Type of experiment: functional, cell-based. (In western blotting, separated proteins are transferred to a membrane and probed.)
Experiment [15] deals with WiDr. The experiment in a line: Cell cycle arrest in human WiDr cells assessed as decrease in cells at S phase at 7 to 21 uM after 24 hrs by flow cytometry. Type of experiment: functional, cell-based.
Experiment [16] concerns T47D. The experiment in a line: Cell cycle arrest in human T47D cells assessed as decrease in cells at S phase at 7 to 21 uM after 24 hrs by flow cytometry. Type of experiment: functional, cell-based.
The subject of experiment [17] is HeLa. The experiment in a line: Cell cycle arrest in human HeLa cells assessed as phosphorylated histone H3 at ser10 at 21 uM after 24 hrs by flow cytometry (reference value: […]). It counts as functional.
In experiment [18] the test system is SW1573. The experiment in a line: Cell cycle arrest in human SW1573 cells assessed as accumulation at G2/M phase after 24 hrs by flow cytometry. Type of experiment: functional, cell-based.
The test system of experiment [19] is HeLa. The experiment in a line: Cell cycle arrest in human HeLa cells assessed as decrease in cells at S phase at 7 to 21 uM after 24 hrs by flow cytometry. Type of experiment: functional, cell-based.
Experiment [20] concerns HeLa. The experiment in a line: Cell cycle arrest in human HeLa cells assessed as increase in phosphorylated BubR1 level at 7 to 21 uM after 24 hrs by Western blot analysis. It counts as functional, cell-based.
Experiment [21] has as its system HeLa. The experiment in a line: Induction of apoptosis in human HeLa cells assessed as PARP cleavage at 7 to 21 uM after 24 hrs by immunoblotting. Type of experiment: functional, cell-based.
In experiment [22] the test system is T47D. The experiment in a line: Induction of apoptosis in human T47D cells assessed as increase in sub-G1 DNA content at 7 to 21 uM after 24 hrs by flow cytometry. Type of experiment: functional.
Experiment [23] deals with HBL-100. The experiment in a line: Induction of apoptosis in human HBL100 cells assessed as increase in sub-G1 DNA content at 7 to 21 uM after 24 hrs by flow cytometry. Type of experiment: functional.
Experiment [24] has as its system HBL-100. The experiment in a line: Cell cycle arrest in human HBL100 cells assessed as decrease in cells at G1 phase at 7 to 21 uM after 24 hrs by flow cytometry. It counts as functional, cell-based.
Experiment [25] deals with HeLa. The experiment in a line: Induction of apoptosis in human HeLa cells assessed as increase in sub-G1 DNA content at 7 to 21 uM after 24 hrs by flow cytometry. It counts as functional.
The subject of experiment [26] is HeLa. The experiment in a line: Cell cycle arrest in human HeLa cells assessed as decrease in phosphorylated RB protein at 7 to 21 uM after 24 hrs by Western blot analysis. Type of experiment: functional, cell-based.
The subject of experiment [27] is HBL-100. The experiment in a line: Cell cycle arrest in human HBL100 cells assessed as decrease in cells at S phase at 7 to 21 uM after 24 hrs by flow cytometry. It counts as functional, cell-based.
The subject of experiment [28] is SW1573. The experiment in a line: Induction of apoptosis in human SW1573 cells assessed as increase in sub-G1 DNA content at 7 to 21 uM after 24 hrs by flow cytometry. Type of experiment: functional.
Experiment [29] relates to SW1573. The experiment in a line: Cell cycle arrest in human SW1573 cells assessed as decrease in cells at G1 phase at 7 to 21 uM after 24 hrs by flow cytometry. It counts as functional, cell-based.
In experiment [30] the test system is HBL-100. The experiment in a line: Cell cycle arrest in human HBL100 cells assessed as accumulation at G2/M phase after 24 hrs by flow cytometry. Type of experiment: functional, cell-based.
For experiment [31], the system named is WiDr. The experiment in a line: Cell cycle arrest in human WiDr cells assessed as decrease in cells at G1 phase at 7 to 21 uM after 24 hrs by flow cytometry. Type of experiment: functional, cell-based.

On to `CSc1nc(N)c(N=O)c(NCCc2ccccc2)n1`, for which the GI50 (usually the concentration that inhibits growth by half) was 27 µM with HeLa [1]; greater than 100 µM in the experiment with T47D [2]; greater than 100 µM in the experiment with A2780; 37 µM with SW1573 [3]; greater than 100 µM with Ishikawa; 12 µM in the experiment on HBL-100 [4]. Moreover, the GI50 with WiDr [5] was greater than 100 µM.

On to `COc1cc([C@@H]2c3cc4c(cc3[C@@H](O[C@@H]3O[C@@H]5CO[C@@H](C)O[C@H]5[C@H](O)[C@H]3O)[C@H]3COC(=O)[C@H]23)OCO4)cc(OC)c1O` [ETOPOSIDE], for which the concentration for 50% growth inhibition (GI50) came to 3 µM with HeLa [1]; 22 µM in the experiment with T47D [2]; 15 µM with SW1573 [3]; 11 µM with Ishikawa; 2.3 µM in the experiment on HBL-100 [4]; 23 µM in the experiment on WiDr [5].

For the molecule `Cn1c(=O)c(=O)n(O)c2c(NCCc3ccccc3)ncnc21`, the GI50 was greater than 100 µM in the experiment with HeLa [1]; greater than 100 µM in the experiment with T47D [2]; greater than 100 µM in the experiment on A2780; 59 µM with SW1573 [3]; greater than 100 µM with Ishikawa; 54 µM with HBL-100 [4]. In the experiment with WiDr [5], this molecule registered a GI50 greater than 100 µM.

As to `CC(=O)O[C@H]1C(=O)[C@@]2(C)[C@H]([C@H](OC(=O)c3ccccc3)[C@]3(O)C[C@H](OC(=O)[C@H](O)[C@@H](NC(=O)c4ccccc4)c4ccccc4)C(C)=C1C3(C)C)[C@]1(OC(C)=O)CO[C@@H]1C[C@@H]2O` [PACLITAXEL], the concentration for 50% growth inhibition (GI50) in the experiment on T47D [2] amounted to 0.00015 µM; in the experiment on A2780, 0.00027 µM; with SW1573 [3], 0.005 µM; with HBL-100 [4], 1.7e-05 µM; with WiDr [5], 0.00022 µM.

Take `Cn1c(=O)c(=O)n(O)c2c(NCCN3CCOCC3)ncnc21`: the 50% growth inhibitory concentration (GI50) with HeLa [1], in the experiment on T47D [2], in the experiment on A2780, in the experiment with SW1573 [3], in the experiment on Ishikawa and in the experiment with HBL-100 [4] was greater than 100 µM throughout. In the experiment on WiDr [5], this molecule showed a concentration for 50% growth inhibition (GI50) greater than 100 µM.

Regarding `CNc1ncnc(NCCc2ccccc2)c1N=O`, the outcome with HeLa [6], in the experiment with HeLa [7], in the experiment with SW1573 [8], in the experiment with T47D [12], in the experiment on WiDr [15] and in the experiment on T47D [16] was Active. Further, the result in the experiment with HeLa [19], with HeLa [20], in the experiment with HBL-100 [24], in the experiment with HeLa [26], in the experiment on HBL-100 [27] and with SW1573 [29] was Active. Also, in the experiment with WiDr [31], the outcome was Active. Moreover, the Activity entry was “Dose-dependent effect” in the experiment with WiDr [9]; “Dose-dependent effect” in the experiment with HeLa [10]; less than 8.5% with WiDr [11]; “Dose-dependent effect” in the experiment with T47D [13]; 15.1% with HeLa [17]; “Dose-dependent effect” in the experiment with SW1573 [18]. The Activity is less than 8.5% with T47D [22]; less than 8.5% with HBL-100 [23]; less than 8.5% in the experiment on HeLa [25]; less than 8.5% in the experiment on SW1573 [28]; “Dose-dependent effect” in the experiment on HBL-100 [30]. The GI50 in the experiment with HeLa [1] turned out to be 4.5 µM; in the experiment on T47D [2], 7 µM; in the experiment with A2780, 3.4 µM; in the experiment on SW1573 [3] it was 3.2 µM; in the experiment with Ishikawa, 3.8 µM; in the experiment with HBL-100 [4], 3.6 µM. The same molecule gave a GI50 with WiDr [5] of 7.2 µM. Also, the outcome with HeLa [14] and in the experiment on HeLa [21] was inactive.
